Measurements: patent US20260062422A1 (Halda Therapeutics OpCo, Inc., priority 2022, published 2026)

Experiments:
[1] = biological target: T1, BRD4-BD1 (Homo sapiens, UniProt O60885); test: bromoKdELECT assay for binding affinity to BRD4-BD1; conditions: Table 6
T1 construct: made in house; host or cells: T7 phage grown in an E. coli host derived from BL21
Protocol: Compounds were tested using a bromoKdELECT assay. T7 phage strains displaying bromodomains were grown in parallel in 24-well blocks in an E. coli host derived from the BL21 strain. E. coli were grown to log-phase and infected with T7 phage from a frozen stock (multiplicity of infection=0.4) and incubated with shaking at 32° C. until lysis (90-150 minutes). The lysates were centrifuged (5,000×g) and filtered (0.2 μm) to remove cell debris. Streptavidin-coated magnetic beads were treated with biotinylated small molecule or acetylated peptide ligands for 30 minutes at room temperature to generate affinity resins for bromodomain assays. The liganded beads were blocked with excess biotin and washed with blocking buffer (SeaBlock (Pierce), 1% BSA, 0.05% Tween 20, 1 mM DTT) to remove unbound ligand and to reduce nonspecific phage binding. Binding reactions were assembled by combining bromodomains, liganded affinity beads, and test compounds in 1× binding buffer (17% SeaBlock, 0.33×PBS, 0.04% Tween 20, 0.02% BSA, 0.004% Sodium azide, 7.4 mM DTT). Test compounds were prepared as 1000× stocks in 100% DMSO. Kds were determined using an 11-point 3-fold compound dilution series with one DMSO control point. All compounds for Kd measurements are distributed by acoustic transfer (non-contact dispensing) in 100% DMSO. The compounds were then diluted directly into the assays such that the final concentration of DMSO was 0.09%. All reactions performed in polypropylene 384-well plates. Each was a final volume of 0.02 ml. The assay plates were incubated at room temperature with shaking for 1 hour and the affinity beads were washed with wash buffer (1×PBS, 0.05% Tween 20). The beads were then resuspended in elution buffer (1×PBS, 0.05% Tween […] non-biotinylated affinity ligand) and incubated at room temperature with shaking for 30 minutes. The bromodomain concentration in the eluates was measured by qPCR.

[2] = test system: VCaP cells; test: Cellular growth inhibition assay for VCaP cells, CellTiter-Glo; format: cell-based, human; conditions: Homo sapiens, VCaP, 72 h, 72 hours treatment, CellTiter-Glo 2.0
Summary of the method: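 GI50 values come from four-parameter curve fits of luminescence data normalized to a zero baseline. Compound, in medium with 0.5% DMSO, was added one day after plating and left for 72 h before CellTiter-Glo 2.0 addition.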

[3] = test system: T-Rex 293 cell line SC cells lacking increased expression of progesterone receptor isoform B protein; test: Cellular growth inhibition, T-Rex 293 SC cells without doxycycline, Example 45; format: cell-based; conditions: T-Rex 293 SC cells not exposed to doxycycline, 72 hours treatment, CellTiter-Glo 2.0
Protocol: The following types of cells were prepared for this experiment: (i) a T-Rex 293 cell line having increased expression of progesterone receptor isoform B protein due to exposure to doxycycline and (ii) a T-Rex 293 cell line lacking increased expression of progesterone receptor isoform B protein. Ability of the test compounds to inhibit proliferation of the foregoing cell types was evaluated according to the procedures set forth below.
The doxycycline-inducible progesterone receptor isoform B protein expressing cell line was established using the following protocol: T-Rex 293 cells were purchased from Invitrogen (Cat #R71007) and transfected using Lipofectamine 2000 with the wild-type progesterone receptor B protein sequence cloned into the pcDNA4/TO vector. Transfected cells were selected using 400 μg/mL Zeocin (Invitrogen Cat #R25001). Following selection, single clones were raised and maintained in Dulbecco's Modified Eagle Medium (DMEM) supplemented with 10% w/w Tetracycline-free fetal bovine serum (FBS) and 250 μg/mL Zeocin. Clones were analyzed for expression of progesterone receptor isoform B protein in the presence and absence of 10 ng/mL doxycycline (Sigma Cat #D9891), and a single doxycycline-inducible clone (hereinafter “SC”) was selected for use in downstream assays.
The SC cells were seeded on poly-D-lysine coated, black clear-bottom 384-well plates at 2500/well, in 25 μL Phenol Red Free Dulbecco's Modified Eagle Medium (DMEM) supplemented with 10% w/w charcoal-dextran treated fetal bovine serum (FBS) and 1% w/w pen-strep, with or without 10 ng/mL doxycycline. Pen-Strep is a commercially available mixture of penicillin G and streptomycin, which is used in mammalian cell culture media to prevent bacterial contamination. Phenol Red Free Dulbecco's Modified Eagle Medium (DMEM) supplemented with 10% w/w charcoal-dextran treated fetal bovine serum (FBS) and 1% w/w pen-strep, with or without 10 ng/mL doxycycline is herein referred to as Treatment Medium. Following seeding of cells in the plates, the plates were spun at 300×g for 30 seconds, then equilibrated to room temperature for 30 minutes, and then deposited in a humidified tissue culture incubator maintained at 37° C. with 5% CO2.
At 24 hours after seeding of the cells, dilutions of test compound were prepared in DMSO and dissolved in Treatment Medium, to achieve a final DMSO concentration of 0.5% w/w, thereby providing the Test Compound Solution. A 25 μL aliquot of the Test Compound Solution was added to cells in the well plates. An equal volume of a solution containing DMSO and Treatment Medium was used as a negative control. Following treatment of cells with Test Compound Solution or said equal volume of a solution containing DMSO and Treatment Medium, the plates were spun at 300×g for 30 seconds, and then left in an incubator for 72 hours.
At the end of the treatment duration, cell viability was quantified with CellTiter-Glo 2.0 reagent (Promega Cat #G9243). For this purpose, plates were equilibrated to room temperature for 30 minutes, and then 25 μL of CellTiter-Glo 2.0 reagent was added to cells in the plate wells. Plates were then agitated on a shaker for two minutes at 500 rpm and subsequently incubated at room temperature for 10 minutes. Following incubation, the plates were spun at 3000×g for 30 seconds, then sealed with an optical adhesive cover, and luminescence readings were measured with an EnVision Plate Reader (Perkin Elmer).
Data was normalized using zero luminescence for baseline. A four-parameter non-linear regression curve fit was applied to dose-response data in GraphPad Prism data analysis software to determine the half-maximal growth inhibitory concentration (GI50) for each test compound.

Structure (SMILES) | Kd [1] [nM] | GI50 [2] [nM] | GI50 [3] [nM]
Cc1sc2c(c1C)C(c1ccc(Cl)cc1)=N[C@@H](CC(=O)NCCOCCOCCOCCOCCN(C)c1ncc(C(=O)N[C@H]3C(C)(C)[C@H](Oc4ccc(C#N)c(Cl)c4)C3(C)C)cn1)c1nnc(C)n1-2 [Compound I-3, N-((1r,3r)-3-(3-chloro-4-cyanophenoxy)-2,2,4,4-tetramethylcyclobutyl)-2-((1-((S)-4-(4-chlorophenyl)-2,3,9-trimethyl-6H-thieno[3,2-f][1,2,4]triazolo[4,3-a][1,4]diazepin-6-yl)-2-oxo-6,9,12,15-tetraoxa-3-azaheptadecan-17-yl)(methyl)amino)pyrimidine-5-carboxamide] | 50 to 500 | < 500 | 1500 to 3000
Cc1sc2c(c1C)C(c1ccc(Cl)cc1)=N[C@@H](CC(=O)NCCOC1CCN(c3ncc(C(=O)N[C@H]4C(C)(C)[C@H](Oc5ccc(C#N)c(Cl)c5)C4(C)C)cn3)CC1)c1nnc(C)n1-2 [Compound I-6] | > 2500 | < 500 | < 500
Cc1sc2c(c1C)C(c1ccc(Cl)cc1)=N[C@@H](CC(=O)NCCOCCOCCOC1CCN(c3ncc(C(=O)N[C@H]4C(C)(C)[C@H](Oc5ccc(C#N)c(Cl)c5)C4(C)C)cn3)CC1)c1nnc(C)n1-2 [Compound I-7] | 500 to 2500 | < 500 | < 500
Cc1sc2c(c1C)C(c1ccc(Cl)cc1)=N[C@@H](CC(=O)NCCOCCOCCOCCOCCOC1CCN(c3ncc(C(=O)N[C@H]4C(C)(C)[C@H](Oc5ccc(C#N)c(Cl)c5)C4(C)C)cn3)CC1)c1nnc(C)n1-2 [Compound I-8] | 500 to 2500 | < 500 | 500 to 1500
Cc1sc2c(c1C)C(c1ccc(Cl)cc1)=N[C@H](CC(=O)NCCOCCOCCOCCOCCOCCOCCOC1CCN(c3ncc(C(=O)N[C@H]4C(C)(C)[C@H](Oc5ccc(C#N)c(Cl)c5)C4(C)C)cn3)CC1)c1nnc(C)n1-2 [Compound I-9] | 500 to 2500 | < 500 | 1500 to 3000
CCNC(=O)C[C@@H]1N=C(c2ccc(OCCOC3CCN(c4ncc(C(=O)N[C@H]5C(C)(C)[C@H](Oc6ccc(C#N)c(Cl)c6)C5(C)C)cn4)CC3)cc2)c2c(sc(C)c2C)-n2c(C)nnc21 [Compound I-60, N-((1r,3r)-3-(3-chloro-4-cyanophenoxy)-2,2,4,4-tetramethylcyclobutyl)-2-(4-(2-(4-((S)-6-(2-(ethylamino)-2-oxoethyl)-2,3,9-trimethyl-6H-thieno[3,2-f][1,2,4]triazolo[4,3-a][1,4]diazepin-4-yl)phenoxy)ethoxy)piperidin-1-yl)pyrimidine-5-carboxamide] | 50 to 500 | 500 to 1500 | < 500
CCNC(=O)C[C@@H]1N=C(c2ccc(N3CCN(CC4CCN(c5ncc(C(=O)N[C@H]6C(C)(C)[C@H](Oc7ccc(C#N)c(Cl)c7)C6(C)C)cn5)CC4)CC3)cc2)c2c(sc(C)c2C)-n2c(C)nnc21 [Compound I-105, N-[3-(3-chloro-4-cyano-phenoxy)-2,2,4,4-tetramethyl-cyclobutyl]-2-[4-[[4-[4-[(9S)-9-[2-(ethylamino)-2-oxo-ethyl]-4,5,13-trimethyl-3-thia-1,8,11,12-tetrazatricyclo[8.3.0.02,6]trideca-2(6),4,7,10,12-pentaen-7-yl]phenyl]piperazin-1-yl]methyl]-1-piperidyl]pyrimidine-5-carboxamide] | 50 to 500 | < 500 | < 500
Cc1sc2c(c1C)C(c1ccc(CCCOC3CCN(c4ncc(C(=O)N[C@H]5C(C)(C)[C@H](Oc6ccc(C#N)c(Cl)c6)C5(C)C)cn4)CC3)cc1)=N[C@@H](Cc1ncco1)c1nnc(C)n1-2 [Compound I-131, N-[3-(3-chloro-4-cyano-phenoxy)-2,2,4,4-tetramethyl-cyclobutyl]-2-[4-[3-[4-[(9S)-4,5,13-trimethyl-9-(oxazol-2-ylmethyl)-3-thia-1,8,11,12-tetrazatricyclo[8.3.0.02,6]trideca-2(6),4,7,10,12-pentaen-7-yl]phenyl]propoxy]-1-piperidyl]pyrimidine-5-carboxamide] | > 2500 | < 500 | < 500
COCC[C@@H]1N=C(c2ccc(CCCOC3CCN(c4ncc(C(=O)N[C@H]5C(C)(C)[C@H](Oc6ccc(C#N)c(Cl)c6)C5(C)C)cn4)CC3)cc2)c2c(sc(C)c2C)-n2c(C)nnc21 [Compound I-227, N-[3-(3-chloro-4-cyano-phenoxy)-2,2,4,4-tetramethyl-cyclobutyl]-2-[4-[3-[4-[(9S)-9-(2-methoxyethyl)-4,5,13-trimethyl-3-thia-1,8,11,12-tetrazatricyclo[8.3.0.02,6]trideca-2(6),4,7,10,12-pentaen-7-yl]phenyl]propoxy]-1-piperidyl]pyrimidine-5-carboxamide] | > 2500 | > 3000 | 500 to 1500
Cc1sc2c(c1C)C(c1ccc(CCCOC3CCN(c4ncc(C(=O)N[C@H]5C(C)(C)[C@H](Oc6ccc(C#N)c(Cl)c6)C5(C)C)cn4)CC3)cc1)=N[C@@H](C)c1nnc(C)n1-2 [Compound I-228, N-[3-(3-chloro-4-cyano-phenoxy)-2,2,4,4-tetramethyl-cyclobutyl]-2-[4-[3-[4-[(9S)-4,5,9,13-tetramethyl-3-thia-1,8,11,12-tetrazatricyclo [8.3.0.02,6]trideca-2(6),4,7,10,12-pentaen-7-yl]phenyl]propoxy]-1-piperidyl]pyrimidine-5-carboxamide] | 500 to 2500 | < 500 | 500 to 1500
Cc1sc2c(c1C)C(c1ccc(OCCOC3CCN(c4ncc(C(=O)N[C@H]5C(C)(C)[C@H](Oc6ccc(C#N)c(Cl)c6)C5(C)C)cn4)CC3)cc1)=N[C@@H](CC(=O)OC(C)(C)C)c1nnc(C)n1-2 [Compound I-235, tert-butyl 2-((S)-4-(4-(2-((1-(5-(((1r,3r)-3-(3-chloro-4-cyanophenoxy)-2,2,4,4-tetramethylcyclobutyl)carbamoyl)pyrimidin-2-yl)piperidin-4-yl)oxy)ethoxy)phenyl)-2,3,9-trimethyl-6H-thieno[3,2-f][1,2,4]triazolo[4,3-a][1,4]diazepin-6-yl)acetate] | > 2500 | < 500 | < 500
